Measurements published in patent US5856484A, “Sulfonylaminopyrimidine carboxylic acid derivatives having endothelin inhibiting activity” (Hoffmann-La Roche Inc., priority 1995, dated 1999).

Tests used:
human ETA receptors = biological target: T1, human ETA receptors (Homo sapiens, UniProt P25101); experiment: Inhibition of endothelin binding to recombinant ETA receptors; conditions: 125I-endothelin, baculovirus-insect cell membranes, 20° C. 2 hours or 4° C. 24 hours
T1 construct: made in house; host or cells: baculovirus-infected insect cells
T1 sequence (P25101 21-427): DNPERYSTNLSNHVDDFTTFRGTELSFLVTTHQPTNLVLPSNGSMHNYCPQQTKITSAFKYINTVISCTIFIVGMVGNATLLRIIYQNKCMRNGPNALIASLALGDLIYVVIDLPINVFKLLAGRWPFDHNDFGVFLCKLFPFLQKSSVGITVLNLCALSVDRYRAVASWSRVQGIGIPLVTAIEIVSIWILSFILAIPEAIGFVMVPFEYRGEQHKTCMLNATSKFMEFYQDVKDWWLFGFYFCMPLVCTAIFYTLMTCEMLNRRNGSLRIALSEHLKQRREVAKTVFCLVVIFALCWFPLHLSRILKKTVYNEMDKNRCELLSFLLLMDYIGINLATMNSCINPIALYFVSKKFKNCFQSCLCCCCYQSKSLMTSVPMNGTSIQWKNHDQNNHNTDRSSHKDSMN
Experimental: I, Inhibition of endothelin binding to recombinant ETA receptors
A cDNA coding for human ETA receptors of human placenta was cloned (M. Adachi, Y.-Y. Yang, Y. Furuichi and C-Miyamoto, BBRC 180, 1265-1272) and expressed in the baculovirus-insect cell system. Baculovirus-infected insect cells from a 23 I fermentor are centrifuged off (3000×g, 15 minutes, 4° C.) 60 hours after the infection, re-suspended in Tris buffer (5 mM, pH 7.4, 1 mM MgCl2) and again centrifuged. After a further re-suspension and centrifugation the cells are suspended in 800 ml of the same buffer and freeze-dried at -120° C. The cells disintegrate when the suspension in this hypotonic buffer mixture is thawed. After a repeated freeze-drying/thawing cycle the suspension is homogenized and centrifuged (25000 x g, 15 minutes, 4° C.). After suspension in Tris buffer (75 mM, pH 7.4, 25 mM MgCl2, 250 mM sucrose) 1 ml aliquots (protein content about 3.5 mg/ml) are stored at -85° C.
(§1) For the binding assay, the freeze-dried membrane preparations are thawed and, after centrifugation at 20° C. and 25000 g for 10 minutes, re-suspended in assay buffer (50 mM Tris buffer pH 7.4, containing 25 mM MnCl2, 1 mM EDTA and 0.5% bovine serum albumin). 100 μl of this membrane suspension containing 5 μg of protein are incubated with 50 μl of ^125 I-endothelin (specific activity 2200 Ci/mMol) in assay buffer (25000 cpm, final concentration 20 μM) and 100 μl of assay buffer containing varying concentrations of test compound. The incubation is carried out at 20° C. for 2 hours or at 4° C. for 24 hours. The separation of free and membrane-bound radioligands is carried out by filtration over a glass fibre filter.
(§2) The inibitory activity on ETA and ETB receptors of compounds of formula I determined in these test procedures is given in Table 1 as the IC50, i.e. as the concentration [μM] which is required to inhibit 50% of the specific binding of ^125 I-endothelin.

ETB receptors = biological target: T2, ETB receptors (Homo sapiens, UniProt P24530); experiment: Inhibition of endothelin binding to human placenta membranes (ETB receptors); conditions: 125I-endothelin, 20° C. 2 hours or 4° C. 24 hours
T2 construct: Human placenta is homogenized in 5 mM Tris buffer; from tissue; host or cells: human placenta membranes
T2 sequence (P24530 27-442): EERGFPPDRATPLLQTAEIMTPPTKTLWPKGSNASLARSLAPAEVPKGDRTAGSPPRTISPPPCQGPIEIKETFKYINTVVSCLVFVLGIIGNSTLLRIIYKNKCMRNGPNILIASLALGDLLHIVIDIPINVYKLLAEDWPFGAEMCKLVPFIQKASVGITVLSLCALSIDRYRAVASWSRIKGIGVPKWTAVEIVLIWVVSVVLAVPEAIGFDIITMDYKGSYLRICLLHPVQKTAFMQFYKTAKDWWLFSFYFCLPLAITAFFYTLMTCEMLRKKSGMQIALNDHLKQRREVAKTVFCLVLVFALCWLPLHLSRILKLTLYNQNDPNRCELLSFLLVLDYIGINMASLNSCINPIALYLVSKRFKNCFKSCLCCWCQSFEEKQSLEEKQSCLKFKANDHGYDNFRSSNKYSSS
Experimental: II. Inhibition of endothelin binding to human placenta membranes (ETB receptors) (see Life Sci 44:1429 (1989))
Human placenta is homogenized in 5 mM Tris buffer, pH 7.4, which contains 1 mM MgCl2 and 250 mM sucrose. The homogenizate is centrifuged at 4° C. and 3000 g for 15 minutes, the supernatant containing the plasma membrane fraction is centrifuged at 72000 g for 30 minutes and the precipitate is washed with 75 mM Tris buffer, pH 7.4, which contains 25 mM MgCl2. Thereafter, precipitate obtained from in each case 10 g of original tissue is suspended in 1 ml of 75 mM Tris buffer, pH 7.4, containing 25 mM MgCl2 and 250 mM sucrose and freeze-dried at -20° C. in 1 ml aliquots.
as §1, with “Tris buffer,” for “Tris buffer”, “containing 35” for “containing 5”, “^125 I-endotheline” for “^125 I-endothelin”, “2200 (Ci/mMol)” for “2200 Ci/mMol)”, “20 pM)” for “20 μM)”
as §2

IC50 (human ETA receptors)	IC50 (ETB receptors)	Compound
1.83 µM		COc1ccc(Cl)c(Oc2c(NS(=O)(=O)c3ccc(C(C)(C)C)cc3)nc(C(=O)O)nc2OCCO)c1 [Example 2, 4-(4-tert.Butyl-phenylsulphonylamino)-5-(2-chloro-5-methoxy-phenoxy)-6-(2-hydroxy-ethoxy)-pyrimidine-2-carboxylic acid]
18.2 µM	0.3 µM	COc1ccc(S(=O)(=O)Nc2nc(C(=O)Nc3ccccc3)nc(OCCO)c2Oc2cccc(OC)c2)cc1 [Example 7, 4-(2-Hydroxy-ethoxy)-5-(3-methoxy-phenoxy)-6-(4-methoxy-phenylsulphonylamino)-pyrimidine-2-carboxylic acid phenylamide]
38 µM		COc1cccc(Oc2c(NS(=O)(=O)c3ccc(C(C)(C)C)cc3)nc(C(=O)Nc3ccccc3)nc2OCCO)c1 [Example 6, 6-(4-tert.butyl-phenylsulphonylamino)-4-(2-hydroxy-ethoxy)-5-(3-methoxy-phenoxy)-pyrimidine-2-carboxylic acid phenylamide]
73 µM	0.08 µM	COc1cccc(Oc2c(NS(=O)(=O)c3ccc(C(C)(C)C)cc3)nc(C(=O)O)nc2OCCO)c1 [Example 1, 6-(4-tert.butyl-phenylsulphonylamino)-4-(2-hydroxy-ethoxy)-5-(3-methoxy-phenoxy)-pyrimidine-2-carboxylic acid]
16.4 µM	0.29 µM	COc1ccccc1Oc1c(NS(=O)(=O)c2ccc(C(C)(C)C)cc2)nc(C(=O)O)nc1OCCO [Example 5, 6-(4-tert.butyl-phenylsulphonylamino)-4-(2-hydroxy-ethoxy)-5-(2-methoxy-phenoxy)-pyrimidine-2-carboxylic acid]
21.4 µM	0.086 µM	COc1ccc(Cl)c(Oc2c(NS(=O)(=O)c3ccc(C(C)(C)C)cc3)nc(C(=O)Nc3ccccc3)nc2OCCO)c1 [Example 9, 4-(4-tert.Butyl-phenylsulphonylamino)-5-(2-chloro-5-methoxy-phenoxy)-6-(2-hydroxy-ethoxy)-pyrimidine-2-carboxylic acid phenylamide]
13 µM	0.06 µM	COc1ccccc1Oc1c(NS(=O)(=O)c2ccc(C(C)(C)C)cc2)nc(C(=O)Nc2ccccc2)nc1OCCO [Example 8, 6-(4-tert.Butyl-phenylsulphonylamino)-5-(2-methoxy-phenoxy)-4-(2-hydroxy-ethoxy)-pyrimidine-2-carboxylic acid phenylamide]
13 µM	0.14 µM	COc1cccc(Oc2c(NS(=O)(=O)c3ccc(C(C)(C)C)cc3)nc(C(=O)Nc3nnn[nH]3)nc2OCCO)c1 [Example 10, 4-(4-tert.Butyl-phenylsulphonylamino)-6-(2-hydroxy-ethoxy)-5-(3-methoxy-phenoxy)-pyrimidine-2-carboxylic acid (1 H-tetrazol-5-yl)-amide]
